Results on four compounds are retold here after paper PMC5564600 (Oncotarget, 2017).

Common to all, as to assay: biochemical
What all share (format): binding

Test [1] has as its target T1, panel of 442 kinases (Homo sapiens, UniProt Q9BXA7).
T1 construct: purchased Ambit Biosciences (scanMAXX KINOMEscan)
T1 sequence (Q9BXA7 1-367): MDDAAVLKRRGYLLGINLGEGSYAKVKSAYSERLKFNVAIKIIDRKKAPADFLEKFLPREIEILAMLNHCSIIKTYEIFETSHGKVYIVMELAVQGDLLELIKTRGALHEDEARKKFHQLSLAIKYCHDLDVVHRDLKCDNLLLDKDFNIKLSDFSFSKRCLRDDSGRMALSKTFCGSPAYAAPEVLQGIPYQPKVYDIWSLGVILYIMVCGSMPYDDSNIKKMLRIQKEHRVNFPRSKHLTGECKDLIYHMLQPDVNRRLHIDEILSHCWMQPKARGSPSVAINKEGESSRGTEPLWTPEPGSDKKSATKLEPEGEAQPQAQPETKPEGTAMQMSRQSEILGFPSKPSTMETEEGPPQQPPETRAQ
To be noted: kinase TSSK1B; for remaining activity at 1 µM: read-out: TSSK1B (% of control at 1 µM).

Test [2] concerns the target T2, panel of 442 kinases (Homo sapiens, UniProt Q16539).
T2 construct: purchased Ambit Biosciences (scanMAXX KINOMEscan)
To be noted: kinase p38-alpha; for remaining activity at 1 µM: read-out: % of control at 1 µM.

In test [3] the target is T3, panel of 442 kinases (Homo sapiens, UniProt O15146).
T3 construct: purchased Ambit Biosciences (scanMAXX KINOMEscan)
T3 sequence (O15146 24-869): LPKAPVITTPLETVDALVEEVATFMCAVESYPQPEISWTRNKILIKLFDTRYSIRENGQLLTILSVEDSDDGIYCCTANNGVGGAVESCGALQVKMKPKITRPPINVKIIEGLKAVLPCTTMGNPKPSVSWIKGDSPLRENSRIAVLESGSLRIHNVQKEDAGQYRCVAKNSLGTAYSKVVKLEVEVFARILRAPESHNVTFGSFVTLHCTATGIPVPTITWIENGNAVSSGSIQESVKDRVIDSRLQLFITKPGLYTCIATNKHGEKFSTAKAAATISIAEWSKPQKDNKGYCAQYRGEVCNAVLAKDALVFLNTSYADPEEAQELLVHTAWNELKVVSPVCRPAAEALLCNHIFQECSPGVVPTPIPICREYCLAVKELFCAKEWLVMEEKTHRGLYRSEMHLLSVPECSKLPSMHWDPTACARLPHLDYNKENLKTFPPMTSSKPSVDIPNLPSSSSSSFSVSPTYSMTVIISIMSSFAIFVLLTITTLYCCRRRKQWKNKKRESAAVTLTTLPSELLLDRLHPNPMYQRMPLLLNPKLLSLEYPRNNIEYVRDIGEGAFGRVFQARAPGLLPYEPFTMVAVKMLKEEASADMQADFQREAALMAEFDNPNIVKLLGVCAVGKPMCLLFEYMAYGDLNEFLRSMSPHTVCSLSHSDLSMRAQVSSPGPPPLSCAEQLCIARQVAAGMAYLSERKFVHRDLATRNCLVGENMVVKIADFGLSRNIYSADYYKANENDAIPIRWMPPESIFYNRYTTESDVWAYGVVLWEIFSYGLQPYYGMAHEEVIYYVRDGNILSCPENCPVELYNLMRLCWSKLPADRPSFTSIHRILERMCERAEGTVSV
Conditions: kinase MUSK; for remaining activity at 1 µM: read-out: % of control at 1 µM.

The target in test [4] is T4, panel of 442 kinases (Homo sapiens, UniProt Q9UPZ9).
T4 construct: purchased Ambit Biosciences (scanMAXX KINOMEscan)
T4 sequence (Q9UPZ9 1-632): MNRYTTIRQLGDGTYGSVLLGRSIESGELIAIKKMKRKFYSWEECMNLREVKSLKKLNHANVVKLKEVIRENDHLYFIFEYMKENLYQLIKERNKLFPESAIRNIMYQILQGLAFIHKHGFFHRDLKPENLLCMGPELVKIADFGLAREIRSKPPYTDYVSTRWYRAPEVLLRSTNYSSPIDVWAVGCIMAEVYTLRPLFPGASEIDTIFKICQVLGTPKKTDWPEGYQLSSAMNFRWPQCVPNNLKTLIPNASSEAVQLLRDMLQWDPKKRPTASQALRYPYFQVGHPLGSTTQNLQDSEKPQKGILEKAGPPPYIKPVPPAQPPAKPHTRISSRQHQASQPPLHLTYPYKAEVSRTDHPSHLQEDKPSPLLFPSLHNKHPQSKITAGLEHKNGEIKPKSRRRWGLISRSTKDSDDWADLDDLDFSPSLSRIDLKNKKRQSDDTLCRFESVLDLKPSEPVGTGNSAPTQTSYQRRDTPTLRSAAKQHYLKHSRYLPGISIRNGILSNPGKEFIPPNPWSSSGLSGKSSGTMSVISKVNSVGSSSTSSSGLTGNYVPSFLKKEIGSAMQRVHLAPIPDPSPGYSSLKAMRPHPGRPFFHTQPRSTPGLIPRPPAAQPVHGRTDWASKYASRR
Conditions: kinase ICK; for remaining activity at 1 µM: read-out: % of control at 1 µM.

Test [5] has as its target T5, panel of 442 kinases (Homo sapiens, UniProt Q15349).
T5 construct: purchased Ambit Biosciences (scanMAXX KINOMEscan)

Test [6] concerns the target T6, panel of 442 kinases (Homo sapiens, UniProt Q14164).
T6 construct: purchased Ambit Biosciences (scanMAXX KINOMEscan)
T6 sequence (Q14164 1-716): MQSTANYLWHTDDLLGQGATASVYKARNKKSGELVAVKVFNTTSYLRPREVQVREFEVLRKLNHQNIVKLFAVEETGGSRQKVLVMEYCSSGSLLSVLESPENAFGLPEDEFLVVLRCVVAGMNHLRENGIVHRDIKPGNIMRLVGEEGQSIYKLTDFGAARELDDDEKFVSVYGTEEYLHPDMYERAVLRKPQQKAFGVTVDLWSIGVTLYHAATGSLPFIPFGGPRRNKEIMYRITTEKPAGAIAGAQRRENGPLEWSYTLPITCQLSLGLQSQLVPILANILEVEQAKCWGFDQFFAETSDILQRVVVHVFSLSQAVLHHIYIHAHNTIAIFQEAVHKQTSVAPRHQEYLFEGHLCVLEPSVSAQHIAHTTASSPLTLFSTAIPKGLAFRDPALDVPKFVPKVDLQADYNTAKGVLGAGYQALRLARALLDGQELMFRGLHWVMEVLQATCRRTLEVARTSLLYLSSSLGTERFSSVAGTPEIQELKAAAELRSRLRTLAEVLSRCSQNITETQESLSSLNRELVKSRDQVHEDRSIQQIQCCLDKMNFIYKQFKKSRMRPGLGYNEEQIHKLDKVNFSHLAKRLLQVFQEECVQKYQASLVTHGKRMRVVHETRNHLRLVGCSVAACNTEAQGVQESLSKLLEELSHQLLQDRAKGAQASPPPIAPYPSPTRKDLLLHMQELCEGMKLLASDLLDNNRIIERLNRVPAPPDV
Conditions: kinase IKK-epsilon; for remaining activity at 1 µM: read-out: % of control at 1 µM.

The mark [7] stands for this setting: 10 µM, read-out: % of control at 10 µM.
[8] abbreviates: kinase RSK3(Kin.Dom.1-N-terminal), read-out: RSK3(Kin.Dom.1-N-terminal) (% of control at 1 µM).
The mark [9] stands for this setting: kinase RSK3(Kin.Dom.2-C-terminal), read-out: RSK3(Kin.Dom.2-C-terminal) (% of control at 1 µM).

Read-outs that look alike come from different tables or passages of the source.

T2 sequence (Q16539 whole entry): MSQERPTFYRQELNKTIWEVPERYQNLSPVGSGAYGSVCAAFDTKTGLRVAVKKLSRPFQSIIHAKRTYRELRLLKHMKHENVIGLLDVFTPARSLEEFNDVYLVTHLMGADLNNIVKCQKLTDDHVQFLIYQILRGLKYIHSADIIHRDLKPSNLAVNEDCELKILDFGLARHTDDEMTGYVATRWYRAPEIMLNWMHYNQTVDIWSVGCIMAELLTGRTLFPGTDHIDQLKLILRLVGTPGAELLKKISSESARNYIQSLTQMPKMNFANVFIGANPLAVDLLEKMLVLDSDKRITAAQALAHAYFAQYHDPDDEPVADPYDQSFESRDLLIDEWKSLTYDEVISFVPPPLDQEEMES
T5 sequence (Q15349 whole entry): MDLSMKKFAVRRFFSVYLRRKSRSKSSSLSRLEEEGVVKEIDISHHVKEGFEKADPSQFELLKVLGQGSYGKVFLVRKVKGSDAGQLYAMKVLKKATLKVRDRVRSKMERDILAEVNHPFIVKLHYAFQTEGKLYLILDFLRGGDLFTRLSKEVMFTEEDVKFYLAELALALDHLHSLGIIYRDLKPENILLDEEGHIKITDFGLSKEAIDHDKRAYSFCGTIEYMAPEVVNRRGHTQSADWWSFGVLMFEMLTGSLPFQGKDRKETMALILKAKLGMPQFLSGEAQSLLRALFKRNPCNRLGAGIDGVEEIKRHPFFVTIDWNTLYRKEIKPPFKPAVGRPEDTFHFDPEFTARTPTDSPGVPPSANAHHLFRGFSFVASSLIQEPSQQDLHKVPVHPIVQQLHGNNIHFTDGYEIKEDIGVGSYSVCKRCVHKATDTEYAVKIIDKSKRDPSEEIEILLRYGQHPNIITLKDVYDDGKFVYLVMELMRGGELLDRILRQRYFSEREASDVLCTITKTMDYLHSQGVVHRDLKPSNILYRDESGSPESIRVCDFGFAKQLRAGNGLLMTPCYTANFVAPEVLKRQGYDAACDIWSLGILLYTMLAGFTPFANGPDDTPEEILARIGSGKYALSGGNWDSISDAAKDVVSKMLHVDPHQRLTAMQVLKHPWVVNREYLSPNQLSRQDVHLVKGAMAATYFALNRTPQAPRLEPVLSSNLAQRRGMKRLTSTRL

Turning to `Nc1cc(C(F)(F)F)c(-c2cc(N3CCOCC3)nc(N3CCOCC3)n2)cn1` [Buparlisib], the remaining activity at 1 µM is 97% in test [1]; 87% in test [2]; 86% in test [3]; 92% in test [4]; 95% in test [5] (setting [8]); 100% in test [5] (setting [9]). Besides, in test [6], the remaining activity at 1 µM is 78%. Also, the remaining activity at 10 µM in test [1] (10 µM, read-out: TSSK1B (% of control at 10 µM)) is 100%; in test [2] (setting [7]), 100%; in test [3] (setting [7]) it was 55%; in test [4] (setting [7]) it was 100%; in test [5] (kinase RSK3(Kin.Dom.1-N-terminal), read-out: RSK3(Kin.Dom.1-N-terminal) (% of control at 10 µM)) it was 100%; in test [5] (kinase RSK3(Kin.Dom.2-C-terminal), read-out: RSK3(Kin.Dom.2-C-terminal) (% of control at 10 µM)), 100%. Moreover, the remaining activity at 10 µM in test [6] (setting [7]) worked out at 100%.
For the compound `Cn1c(=O)n(-c2ccc(C(C)(C)C#N)cc2)c2c3cc(-c4cnc5ccccc5c4)ccc3ncc21` [Dactolisib, 2-methyl-2-[4-(3-methyl-2-oxo-8-quinolin-3-yl-2,3-dihydroimidazo[4,5-c]quinolin-1-yl)-phenyl] propionitrile], the remaining activity at 1 µM in test [1] worked out at 98%; in test [2], 87%; in test [3], 100%; in test [4], 68%; in test [5] (setting [8]) it was 70%; in test [5] (setting [9]), 75%. In addition, the remaining activity at 1 µM in test [6] came out at 100%.
Regarding `COc1ncc(-c2ccc3nccc(-c4ccnnc4)c3c2)cc1NS(=O)(=O)c1ccc(F)cc1F` [Omipalisib], the remaining activity at 1 µM in test [1] is 100%; in test [2], 97%; in test [3] it was 100%; in test [4], 87%; in test [5] (setting [8]) it was 100%; in test [5] (setting [9]), 100%. Also, the remaining activity at 1 µM in test [6] was 100%.
`FC(F)c1nc2ccccc2n1-c1nc(N2CCOCC2)nc(N2CCOCC2)n1` [ZSTK474, 2-(difluoromethyl)-1-[4,6-di(4-morpholinyl)-1,3,5-triazin-2-yl]-1H-benzimidazole]: the remaining activity at 1 µM in test [1] came to 76%; in test [2] it was 100%; in test [3], 100%; in test [4] it was 89%; in test [5] (setting [8]), 100%; in test [5] (setting [9]), 100%. In addition, the remaining activity at 1 µM in test [6] is 100%.
